Measured values reported in patent publication EP0767778B1, “1-PHENOXY-3-N-ALKYLAMINOPROPAN-2-OL HALOGEN DERIVATIVES USEFUL AS MYOCARDIAL beta [sequence] RECEPTOR MARKERS AND AS beta-BLOCKING AGENTS” (CIS BIO INTERNATIONAL, priority 1994, dated 1996).

What was measured:
[1] = octanol-water partition coefficient at room temperature; type: physicochemical; details: pH 7
[2] = biodistribution study in the mouse (Example 22); type: in vivo, souris; details: souris swiss femelles, injection intraveineuse
Method: L'étude de la biodistribution des radioligands chez la souris, permet d'apprécier l'intensité relative de la fixation cardiaque de la molécule et son évolution dans le temps.
Après marquage à l'iode 123 et purification par CLHP 20µCi environ de produit sont mis en solution dans 5 ml d'une solution : éthanol 20%-sérum physiologique 80%. Après injection intraveineuse de 25 µl de cette solution dans la queue de souris vigiles (souris swiss femelles de 20 à 25 g), celles-ci (5 à chaque fois) sont sacrifiées à différents temps après l'injection. On mesure pour chaque souris les activités cardiaques, hépatique, rénale et pulmonaire. Les résultats sont exprimés en pourcentage de la dose injectée par gramme d'organe.
Le CGP12177 étant la référence, un lot de souris a été étudié après injection de CGP 12177 marqué au tritium.

[3] = tested on: récepteurs β adrénergiques; test: isolated perfused rat heart (Langendorff), antagonism of isoprenaline on dP/dt max; details: for DP/dt max: n=6
Method: Dans cet exemple, on teste la propriété pharmacologique antagoniste du composé 6 vis-à-vis des récepteurs β adrénergiques.
L'expérience est conduite sur coeur de rat isolé et perfusé selon la technique de Langendorff.
Après une préperfusion de 25 minutes avec une solution de Krebs-Henseleit, le coeur est perfusé avec de l'isoprénaline à la concentration de 10^-8M pendant 10 minutes; puis avec une solution d'isoprénaline à 10^-8M associée à la molécule à tester à la concentration de 10^-6M.
Si la molécule à tester diminue la dP/dt max en présence d'isoprénaline, on pourra affirmer que cette molécule se comporte comme un antagoniste de l'isoprénaline vis-à-vis des récepteurs β adrénergiques.

[4] = Isoprénaline + molécule (10^e+8 min), isoprénaline 10^-8M, test molecule 10^-6M

Compound	Coefficient de partage octanol-eau à pH 7 [1]	Biodistribution Foie ([2]; 2')	Biodistribution Rein ([2]; 2')	Biodistribution Foie ([2]; 5')	Biodistribution Rein ([2]; 5')	Biodistribution Foie ([2]; 10')	Biodistribution Rein ([2]; 10')	Biodistribution Coeur ([2]; 15")	Biodistribution Foie ([2]; 15")	Biodistribution Poumon ([2]; 15")	Biodistribution Rein ([2]; 15")	Biodistribution Coeur ([2]; 15')	Biodistribution Foie ([2]; 15')	Biodistribution Poumon ([2]; 15')	Biodistribution Rein ([2]; 15')	Biodistribution Coeur ([2]; 2 min.)	Biodistribution Poumon ([2]; 2 min.)	Biodistribution Coeur ([2]; 5 min.)	Biodistribution Poumon ([2]; 5 min.)	Biodistribution Coeur ([2]; 10 min.)	also measured
CC(C)NCC(O)COc1ccc(OCOCC=CI)cc1 (racemic) [composé 10, 1-[4-(5-iodo-2-oxapent-4-ényloxy)phénoxy]3-isopropylaminopropan-2-ol]	13,2	7,2 ± 1,1 pourcentage de la dose injectée par gramme d'organe	14,8 ± 1 pourcentage de la dose injectée par gramme d'organe	10,2 ± 1,1 pourcentage de la dose injectée par gramme d'organe	14 ± 1,1 pourcentage de la dose injectée par gramme d'organe	6,3 ± 3,3 pourcentage de la dose injectée par gramme d'organe	10,7 ± 1,1 pourcentage de la dose injectée par gramme d'organe	28,4 ± 3,6 pourcentage de la dose injectée par gramme d'organe	1,7 ± 0,8 pourcentage de la dose injectée par gramme d'organe	144,52 pourcentage de la dose injectée par gramme d'organe	11,4 ± 5,1 pourcentage de la dose injectée par gramme d'organe	3,9 ± 0,2 pourcentage de la dose injectée par gramme d'organe	9 ± 0,2 pourcentage de la dose injectée par gramme d'organe	2,3 ± 7 pourcentage de la dose injectée par gramme d'organe	9,1 ± 0,4 pourcentage de la dose injectée par gramme d'organe	15 ± 1,5 pourcentage de la dose injectée par gramme d'organe	60 ± 10 pourcentage de la dose injectée par gramme d'organe	9,5 ± 2,3 pourcentage de la dose injectée par gramme d'organe	58 ± 4 pourcentage de la dose injectée par gramme d'organe	5,3 ± 0,15 pourcentage de la dose injectée par gramme d'organe	Biodistribution Coeur ([2]; 30'): 3,1 ± 0,15 pourcentage de la dose injectée par gramme d'organe; Biodistribution Foie ([2]; 30'): 7,2 ± 0,8 pourcentage de la dose injectée par gramme d'organe; Biodistribution Poumon ([2]; 30'): 22 ± 4 pourcentage de la dose injectée par gramme d'organe; Biodistribution Rein ([2]; 30'): 7,6 ± 0,2 pourcentage de la dose injectée par gramme d'organe; Biodistribution Poumon ([2]; 10 min.): 33 ± 14 pourcentage de la dose injectée par gramme d'organe
1-[4-(2-iodoéthylènamido)phénoxy]-3-isopropylaminopropan-2-ol [composé 15]	2,91	6 ± 0,75 pourcentage de la dose injectée par gramme d'organe	20,9 ± 2,5 pourcentage de la dose injectée par gramme d'organe	3,6 ± 0,4 pourcentage de la dose injectée par gramme d'organe	13,3 ± 0,6 pourcentage de la dose injectée par gramme d'organe	2,6 ± 0,2 pourcentage de la dose injectée par gramme d'organe	7,2 ± 0,4 pourcentage de la dose injectée par gramme d'organe	16,2 ± 2,1 pourcentage de la dose injectée par gramme d'organe	4,8 ± 0,2 pourcentage de la dose injectée par gramme d'organe	55 ± 12 pourcentage de la dose injectée par gramme d'organe	17,1 ± 1,2 pourcentage de la dose injectée par gramme d'organe	3,2 ± 0,2 pourcentage de la dose injectée par gramme d'organe	2,6 ± 0,2 pourcentage de la dose injectée par gramme d'organe	11,2 ± 2,2 pourcentage de la dose injectée par gramme d'organe	6,3 ± 1 pourcentage de la dose injectée par gramme d'organe	14,4 ± 0,9 pourcentage de la dose injectée par gramme d'organe	34 ± 6 pourcentage de la dose injectée par gramme d'organe	8,4 ± 0,3 pourcentage de la dose injectée par gramme d'organe	25 ± 6 pourcentage de la dose injectée par gramme d'organe	3,6 ± 0,7 pourcentage de la dose injectée par gramme d'organe	Biodistribution Coeur ([2]; 30'): 2,2 ± 0,15 pourcentage de la dose injectée par gramme d'organe; Biodistribution Foie ([2]; 30'): 2,1 ± 0,1 pourcentage de la dose injectée par gramme d'organe; Biodistribution Poumon ([2]; 30'): 8,4 ± 0,8 pourcentage de la dose injectée par gramme d'organe; Biodistribution Rein ([2]; 30'): 4,8 ± 0,6 pourcentage de la dose injectée par gramme d'organe; Biodistribution Poumon ([2]; 10 min.): 13,2 ± 3,1 pourcentage de la dose injectée par gramme d'organe
1-{4-[2-(2-iodoéthoxy) éthoxy]phénoxy}-3-isopropyl-aminopropan-2-ol [composé 16]	6,7	3,6 ± 0,5 pourcentage de la dose injectée par gramme d'organe	16,4 ± 3,6 pourcentage de la dose injectée par gramme d'organe	7,2 ± 1,6 pourcentage de la dose injectée par gramme d'organe	19,5 ± 5 pourcentage de la dose injectée par gramme d'organe	7,8 ± 1,6 pourcentage de la dose injectée par gramme d'organe	15,4 ± 2 pourcentage de la dose injectée par gramme d'organe	20,4 ± 3,8 pourcentage de la dose injectée par gramme d'organe	1,5 ± 0,8 pourcentage de la dose injectée par gramme d'organe	112 ± 37 pourcentage de la dose injectée par gramme d'organe	4 ± 2,6 pourcentage de la dose injectée par gramme d'organe	3,6 ± 0,4 pourcentage de la dose injectée par gramme d'organe	7,9 ± 0,5 pourcentage de la dose injectée par gramme d'organe	29,6 ± 4 pourcentage de la dose injectée par gramme d'organe	14 ± 2,6 pourcentage de la dose injectée par gramme d'organe	13 ± 1,3 pourcentage de la dose injectée par gramme d'organe	73,3 ± 10 pourcentage de la dose injectée par gramme d'organe	7 ± 0,7 pourcentage de la dose injectée par gramme d'organe	52,7 ± 4 pourcentage de la dose injectée par gramme d'organe	4,1 ± 0,4 pourcentage de la dose injectée par gramme d'organe	Biodistribution Poumon ([2]; 10 min.): 38,9 ± 5,3 pourcentage de la dose injectée par gramme d'organe
CC(C)NCC(O)c1ccc(O)c(O)c1 (stereo not shown) [Isoprenaline]																					DP/dt max ([3]; Isoprénaline (10^e min), isoprénaline 10^-8M alone): 2535±1233 mmHg/min; DP/dt max [3, 4]: 2398±1088 mmHg/min; augmentation de la dP/dt max par rapport à la préperfusion ([3]; isoprénaline seule 10^-8M): 254%
CC(C)NCC(O)COc1cccc2ccccc12 (stereo not shown) [propranolol]																					DP/dt max [3, 4]: 814±240 mmHg/min; effect on the action of isoprénaline on dP/dt max ([3]; isoprénaline 10^-8M + molecule 10^-6M): revient à la valeur basale
